In brackets after ≈: the same amount, converted by molar mass.

The assay has as its system isoniazid-, rifampin-, and fluoroquinolone-resistant M. tuberculosis. Nature of the assay: microbe, parasite or virus in culture. Type of assay: cell-based. The following applies: for MIC: Mycobacterium tuberculosis; for activity against resistant strains: isoniazid-, rifampin-, and fluoroquinolone-resistant M. tuberculosis.

With `CC12CCCC(C(=O)Nc3nc4cc(Cl)cc(Cl)c4s3)(CCC1)C2` [Example 2, N-(5,7-dichloro-1,3-benzothiazol-2-yl)-5-methylbicyclo[3.3.1]nonane-1-carboxamide], the MIC is 0.03 to 4 µg/mL (≈ 0.0783 to 10.4 µM) and the “activity against resistant strains” value was “active”.
Regarding `CC12CCCC(C(=O)Nc3nc4ccc(OC(F)(F)F)cc4s3)(CCC1)C2` [Example 5, 5-methyl-N-[6-(trifluoromethoxy)-1,3-benzothiazol-2-yl]bicyclo[3.3.1]nonane-1-carboxamide], the MIC lay in the range of 0.03 to 4 µg/mL (≈ 0.0753 to 10 µM) and the “activity against resistant strains” value was “active”.
Consider `CC12CC3CC(C)(C1)CC(C(=O)Nc1nc4ccc(OC(F)(F)F)cc4s1)(C3)C2` [Example 45, 3,5-dimethyl-N-[6-(trifluoromethoxy)-1,3-benzothiazol-2-yl]adamantane-1-carboxamide], for which the MIC fell in the range of 0.03 to 4 µg/mL (≈ 0.0707 to 9.42 µM) and the “activity against resistant strains” value was “active”.
`CC1CC(C(=O)Nc2nc3ccc(OC(F)(F)F)cc3s2)CC(C)(C)C1` (stereo not shown) [Example 46, 3,3,5-trimethyl-N-[6-(trifluoromethoxy)-1,3-benzothiazol-2-yl]cyclohexane-1-carboxamide]: the MIC was in the range of 0.03 to 4 µg/mL (≈ 0.0776 to 10.4 µM) and the “activity against resistant strains” value was “active”.
For `CC1CC(C(=O)Nc2nc3c(F)cc(F)cc3s2)CC(C)(C)C1` (stereo not shown) [Example 80, N-(4,6-difluoro-1,3-benzothiazol-2-yl)-3,3,5-trimethylcyclohexane-1-carboxamide], the MIC lay within 0.03 to 4 µg/mL (≈ 0.0886 to 11.8 µM) and the “activity against resistant strains” value is “active”.

The record behind these values is patent publication US11655225B2, “Antimycobacterial heterocyclic amides” (Crestone, Inc., priority 2018, dated 2023).
